According to paper PMC1079869 (BMC Neuroscience, 2005):
Square brackets hold non-standard residues; d marks the D form. Peptide text beside a SMILES is read from it.

What was measured:
[1] = molecular target: T1, c-MYC-tagged human delta opioid receptor (Homo sapiens, UniProt P41143); experiment: Tb-DeltI binding on CHO/MYChDOR whole cells, effect of (1DMe)NPYF (time-resolved fluorometry); conditions: whole cells, relative BMAX, n = 3
Description: 6 μg of crude membrane preparations or whole cells (25 000 cell/well) that were plated one day before experiment and fixed with 4 % PFA for 10 min at room temperature, were used in the saturation binding experiments. The whole cell assays were carried out on normal cell culture plates and the assays with membrane preparations on special filter plates (Pall Life Sciences). The cells or membranes were incubated in 50 mM Tris/HCl pH 7.5; 2.5 mM MgCl2; 60 mM NaCl; 25 μM EDTA, 0.2 % BSA (w/v) for 90 min at room temperature with 0.01 – 781.25 nM Tb-DeltI in the presence or absence of 1 or 5 μM unlabeled DeltI. To study the effect of (1DMe)NPYF on the Tb-DeltI binding, 1–1000 nM (1DMe)NPYF was added together with unlabeled DeltI. After the incubation the unbound Tb-DeltI was removed by washing the plates four times with 50 mM Tris/HCl pH 7.5; 2.5 mM MgCl2. Vacuum pump system was used to wash the filter plates. Since the chelate-bound Tb-ion is nonfluorescent, it needed to be released from the complex. In order to release Tb-ion from the chelate 150 μl Delfia enhancement solution was added to the wells and the plates were incubated on a shaker for 15 min. Thereafter, 40 μl Delfia enhancer that changes the pH of the assay solution appropriate for Tb-fluorescence was added, and the plates were further incubated for 5 min on a shaker. The time-resolved fluorescence of the released Tb-ion was measured with Victor^2 Multilabel counter (Perkin Elemer Wallac, Turku, Finland).

[2] = molecular target: T1, c-MYC-tagged human delta opioid receptor; experiment: Tb-DeltI saturation binding on CHO/MYChDOR cell membranes (time-resolved fluorometry); conditions: 0.01 – 781.25 nM Tb-DeltI; 6 μg membranes; pH 7.5, 90 min room temperature; nonspecific with 1 μM DeltI; Figure 4B
Description: The cells were collected with PBS + 0.2 % EDTA (w/v) and washed with cold PBS. The CHO/MYChDOR or CHO-K1 cells were suspended into ice-cold 50 mM Tris/HCl, 5 mM EDTA, pH 7.5 and homogenized with Potter S-homogenisator on ice. The homogenate was centrifuged 47800 × g at 4°C and the pellet was suspended into the Tris/EDTA buffer and the homogenization/centrifugation was repeated. The pellet was suspended into cold binding assay incubation buffer and the protein content was measured with the Bradford method.
6 μg of crude membrane preparations or whole cells (25 000 cell/well) that were plated one day before experiment and fixed with 4 % PFA for 10 min at room temperature, were used in the saturation binding experiments. The whole cell assays were carried out on normal cell culture plates and the assays with membrane preparations on special filter plates (Pall Life Sciences). […] Thereafter, 40 μl Delfia enhancer that changes the pH of the assay solution appropriate for Tb-fluorescence was added, and the plates were further incubated for 5 min on a shaker. The time-resolved fluorescence of the released Tb-ion was measured with Victor^2 Multilabel counter (Perkin Elemer Wallac, Turku, Finland).

T1 sequence (P41143 whole entry): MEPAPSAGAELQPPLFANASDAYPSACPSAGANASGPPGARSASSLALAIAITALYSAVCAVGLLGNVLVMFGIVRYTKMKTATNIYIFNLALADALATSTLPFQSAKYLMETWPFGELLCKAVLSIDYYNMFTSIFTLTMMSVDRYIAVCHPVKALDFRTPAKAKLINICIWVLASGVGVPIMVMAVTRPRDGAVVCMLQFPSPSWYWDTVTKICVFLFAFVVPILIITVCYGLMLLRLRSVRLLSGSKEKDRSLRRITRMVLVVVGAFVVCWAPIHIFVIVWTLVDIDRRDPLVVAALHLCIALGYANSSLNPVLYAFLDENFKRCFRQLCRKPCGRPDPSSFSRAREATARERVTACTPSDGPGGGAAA

Structure (SMILES): CC(C)[C@H](NC(=O)[C@H](CC(=O)O)NC(=O)[C@H](Cc1ccccc1)NC(=O)[C@@H](C)NC(=O)[C@H](Cc1ccc(O)cc1)NC(=O)[C@@H](N)CS)C(=O)N[C@H](C(=O)NCC(N)=O)C(C)C [Tb-DeltI] (H-CY[dA]FDVVG-NH2; N-terminus and C-terminus assumed)
- BMAX for Tb-DeltI ([1]; 0 nM (1DMe)NPYF): 1.60 ± 0.06 pmol/cell
- BMAX for Tb-DeltI ([1]; in presence of 1 nM (1DMe)NPYF, *** p < 0.001 vs absence of (1DMe)NPYF): 0.70 ± 0.08 *** pmol/cell
- BMAX for Tb-DeltI ([1]; in presence of 10 nM (1DMe)NPYF, *** p < 0.001 vs absence of (1DMe)NPYF): 0.89 ± 0.06 *** pmol/cell
- BMAX for Tb-DeltI ([1]; in presence of 100 nM (1DMe)NPYF): 1.42 ± 0.11 pmol/cell
- BMAX for Tb-DeltI ([1]; in presence of 1000 nM (1DMe)NPYF): 1.49 ± 0.10 pmol/cell
- Tb-DeltI binding to cell membranes [2]: dose-dependently and the binding was saturable at a nanomolar range
